This passage reports AUCliver/AUCheart, IC50 and Cardiac toxicity results from patent US20220054465A1, “(PYRIDIN-2-YL)AMINE DERIVATIVES AS TGF-BETA R1 (ALK5) INHIBITORS FOR THE TREATMENT OF CANCER” (Nexys Therapeutics, Inc., priority 2018, published 2022).

Series [1] can be described thus: Tissue exposure (liver and heart) in Balb/c mouse after PO dosing, general PK protocol. In kind it is in vivo. As to conditions: PO (intragastric) 10 mg/Kg, liver and heart tissue 0.5-24 h, LC-MS/MS. As for the experimental part:
Comparing AUCliver/AUCheart ratio of selected Examples with clinic compounds Galunisertib and LY3200882. Tissue exposure was measured in Balb/c mouse with PO dosing at 10 mpk. […] See Stauber, et al., J. Clin. Pract., 2014, 4(3), 196.
The Balb/c mice were fasted overnight with free access to drinking water prior to treatment. Compounds were formulated in 0.5% CMC/0.5% Tween 80 with or without 1 eq. of NaOH, and administrated intragastrically at 10 mg/Kg. The liver and heart tissues of mice were collected at time points 0.5, 1, 3, 5, 7, 24 h (2 mice per time point) post dose by first sacrificing the animal by C02 inhalation. After flushing with ice saline and removal of excess water on its surface, the liver and heart tissues were weighed and homogenized in 1:5 volumes (w/v) of water with 20% methanol. Tissue samples were kept at −40˜−20° C. prior to analysis. Concentrations of compounds in the liver and hearts were determined using an established liquid chromatography-tandem mass spectrometry (LC-MS/MS) method. Tissue concentration-time data were processed by linear regression analysis. All pharmacokinetic parameters were calculated using non-compartment model of Pharsight Phoenix 8.0.

In a further series the test system is HEK-Blue TGFβ cell. The experiment in a line: HEK-Blue TGFβ cellular reporter gene assay (SEAP readout). As to conditions: HEK-Blue TGFβ cells stimulated with TGF-β, 22-23 h incubation, SEAP read at 630 nm. It is filed as cell-based. The procedure, abridged: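 Cells (2.5×10^5 cells/ml suspension) in DMEM with 0.5% heat-inactivated FBS stimulated with TGF-β (6 ng/ml working solution) plus compound at eight 3-fold dilutions for 22-23 h at 37° C. Supernatant SEAP measured with QUANTI-Blue after 30-40 min, absorbance 630 nm; percent inhibition calculated.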

The conditions of series [2]: Stauber, et al., J. Clin. Pract., 2014, 4(3), 196; cited from earlier work.

`Cc1cc(Oc2ccnc(Nc3cccc(CCC(=O)O)c3)c2)c(-c2ccccn2)nc1C` [Example 1, 3-(3-((4-((5,6-dimethyl-[2,2′-bipyridin]-3-yl)oxy)pyridin-2-yl)amino)phenyl)propanoic acid] returned an AUCliver/AUCheart in series [1] of 13.2. Further, in the series with HEK-Blue TGFβ cell, the half-inhibitory concentration (IC50) (in general, the concentration that gives 50% inhibition) is 0.18 µM.

`Cc1cc(Oc2ccnc(Nc3cccc(CCc4nn[nH]n4)c3)c2)c(-c2ccccn2)nc1C` [Example 12, N-(3-(2-(2H-tetrazol-5-yl)ethyl)phenyl)-4-((5,6-dimethyl-[2,2′-bipyridin]-3-yl)oxy)pyridin-2-amine] registered an AUCliver/AUCheart in series [1] of 60.9. The molecule further gave a concentration for half-maximal inhibition (IC50) in the series on HEK-Blue TGFβ cell of 0.13 µM.

`Cc1cc(Oc2ccnc(Nc3cccc(Cc4nnn[nH]4)c3)c2)c(-c2ccccn2)nc1C` [Example 16, N-(3-((1H-tetrazol-5-yl)methyl)phenyl)-4-((5,6-dimethyl-[2,2′-bipyridin]-3-yl)oxy)pyridin-2-amine] registered an AUCliver/AUCheart in series [1] of 142. Further, the midpoint of inhibition in the series with HEK-Blue TGFβ cell, the IC50, lay at 0.39 µM.

Turning to `Cc1ccc(Oc2ccnc(Nc3cccc(CCc4nn[nH]n4)c3)c2)c(C)n1` [Example 44, N-(3-(2-(2H-tetrazol-5-yl)ethyl)phenyl)-4-((2,6-dimethylpyridin-3-yl)oxy)pyridin-2-amine], in series [1], the AUCliver/AUCheart amounted to 29.9. Also, in the series on HEK-Blue TGFβ cell, the IC50 amounted to 0.12 µM.

For `Cc1ccc(Oc2ccnc(Nc3cccc(CCc4nn[nH]n4)c3)c2)c(-c2ccccc2)n1` [Example 52, N-(3-(2-(2H-tetrazol-5-yl)ethyl)phenyl)-4-((6-methyl-2-phenylpyridin-3-yl)oxy)pyridin-2-amine], in series [1], the AUCliver/AUCheart worked out at 70.6. In the series with HEK-Blue TGFβ cell, this molecule returned a half-inhibitory concentration (IC50) of 0.037 µM.

With `Cc1ccc(Oc2ccnc(Nc3cccc(C(C)(C)C(=O)O)c3)c2)c(-c2ccccc2)n1` [Example 70, 2-methyl-2-(3-((4-((6-methyl-2-phenylpyridin-3-yl)oxy)pyridin-2-yl)amino)phenyl)propanoic acid], in series [1], the AUCliver/AUCheart came out at 67.7. The IC50 with HEK-Blue TGFβ cell turned out to be 0.007 µM.

For `CC(C)(C(=O)O)c1cccc(Nc2cc(Oc3cn(C4CC4)nc3C3CCOCC3)ccn2)c1` [Example 74], in series [1], the AUCliver/AUCheart came out at 266. Besides, the IC50 in the series on HEK-Blue TGFβ cell was determined as 0.23 µM.

`CCc1ccc(Oc2ccnc(Nc3cccc(C(C)(C)C(=O)O)c3)c2)c(C)n1` [Example 81, 2-(3-((4-((6-ethyl-2-methylpyridin-3-yl)oxy)pyridin-2-yl)amino)phenyl)-2-methylpropanoic acid] showed an AUCliver/AUCheart in series [1] of 124. In the series on HEK-Blue TGFβ cell, this molecule had a concentration for half-maximal inhibition (IC50) of 0.031 µM.

The molecule `CCc1ccc(Oc2ccnc(Nc3cccc(C(C)(C)C(=O)O)c3)c2)c(-c2ccccc2)n1` [Example 104] registered an AUCliver/AUCheart in series [1] of 27.8. In the series on HEK-Blue TGFβ cell, this molecule returned an IC50 of 0.022 µM.

Molecule `CCc1ccc(Oc2ccnc(Nc3cccc(CCc4nn[nH]n4)c3)c2)c(-c2ccccn2)n1` [Example 175, N-(3-(2-(2H-tetrazol-5-yl)ethyl)phenyl)-4-((6-ethyl-[2,2′-bipyridin]-3-yl)oxy)pyridin-2-amine] yielded an AUCliver/AUCheart in series [1] of 183. Besides, inhibition in the series on HEK-Blue TGFβ cell was half-maximal at 0.044 µM (IC50).

For the molecule `Cc1cc(Cc2nn[nH]n2)cc(Nc2cc(Oc3cn(C4CC4)nc3-c3ccccc3)ccn2)c1` [Example 199], the 50% inhibitory concentration (IC50) in the series on HEK-Blue TGFβ cell worked out at 0.06 µM.

For the molecule `c1ccc(-c2nn(C3CCC3)cc2Oc2ccnc(Nc3cccc(CCc4nn[nH]n4)c3)c2)cc1` [Example 200], the 50% inhibitory concentration (IC50) with HEK-Blue TGFβ cell worked out at 0.086 µM. This IC50 and that of the molecule before are within 1.5-fold of each other.

In the case of `c1ccc(-c2nn(C3CCC3)cc2Oc2ccnc(Nc3cccc(Cc4nn[nH]n4)c3)c2)cc1` [Example 201], the IC50 in the series on HEK-Blue TGFβ cell was determined as 0.089 µM.

With `Cc1cc(Cc2nn[nH]n2)cc(Nc2cc(Oc3cn(C4CCC4)nc3-c3ccccc3)ccn2)c1` [Example 202], the IC50 in the series with HEK-Blue TGFβ cell was found to be 0.12 µM.

For the molecule `Cc1cccc(-c2nn3c(c2-c2ccnc4ccc(C(N)=O)cc24)CCC3)n1` [Galunisertib, galunisertib, reference compound], the Cardiac toxicity result in series [2] is given as “limiting factor”. Further, the AUCliver/AUCheart in series [1] was determined as 2.9.

`CC(C)(O)c1cc(Nc2cc(Oc3cn(C4CC4)nc3C3CCOCC3)ccn2)ccn1` [LY3200882, reference compound]: the Cardiac toxicity result in series [2] is “cardiac toxicity was identified as the most relevant”. Further, in series [1], the AUCliver/AUCheart was determined as 1.3.
